Laboratory results: the supplement of paper PMC8617591

Key:
[1] = test system: Mycobacterium tuberculosis Erdman (autoluminescent); assay: total FIC50 (Loewe) at 50% inhibition, three-drug combination (log2); higher = more antagonistic
Method: (§1)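 DiaMOND equipotent three-drug combination dose responses (10 doses, 1.5- or 2-fold spacing, centred on IC90) against autoluminescent M. tuberculosis Erdman in 8 in vitro models. Read-out is OD600, or luminescence for the intracellular and dormancy models, normalised to untreated wells. Hill-fit Einf, AUC25 and GRinf are potency metrics; FIC50 and FIC90 are total Loewe fractional inhibitory concentrations as log2 (negative = synergy).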

[2] = test system: Mycobacterium tuberculosis Erdman (autoluminescent); assay: total FIC90 (Loewe) at 90% inhibition, three-drug combination (log2); higher = more antagonistic
Method: as §1

[3] = test system: Mycobacterium tuberculosis Erdman (autoluminescent); assay: Einf, fitted maximum growth inhibition of three-drug combination (fraction); higher = stronger maximal inhibition
Method: as §1

[4] = test system: Mycobacterium tuberculosis Erdman (autoluminescent); assay: AUC25, normalised area under dose response up to IC25 (three-drug combination) (fraction (0-1)); higher = more potent at low dose
Method: as §1

[5] = test system: Mycobacterium tuberculosis Erdman (autoluminescent); assay: GRinf, maximum normalised growth rate inhibition (three-drug combination) (unitless (-1 to 1)); higher = less effect (negative = killing)
Method: as §1

NNC(=O)c1ccncc1 [isoniazid] + NC(=O)c1cnccn1 [pyrazinamide] + CO[C@H]1/C=C/O[C@@]2(C)Oc3c(C)c(O)c4c(O)c(c(/C=N/N5CCN(C)CC5)c(O)c4c3C2=O)NC(=O)/C(C)=C\C=C\[C@H](C)[C@H](O)[C@@H](C)[C@@H](O)[C@@H](C)[C@H](OC(C)=O)[C@@H]1C [rifampicin]
Settings | AUC25, [4] | Einf, [3] | GRinf, [5] | total FIC50, [1] | total FIC90, [2]
in vitro model: acidic pH 5.7, time point: constant (~7 days, model-specific) | 0.0814 | 0.864 | -0.12 | -1.79 | –
in vitro model: acidic pH 5.7, time point: terminal (~4-5 doublings, model-specific) | 0.0574 | 0.988 | -0.193 | -1.2 | -1.75
in vitro model: intracellular J774, time point: constant = terminal | – | 0.976 | -0.255 | – | 0.327

Settings | AUC25, [4] | Einf, [3] | GRinf, [5] | total FIC50, [1] | total FIC90, [2]
in vitro model: butyrate, time point: constant (~7 days, model-specific) | 0.103 | 0.921 | 0.00703 | -2.04 | 0.665
in vitro model: butyrate, time point: terminal (~4-5 doublings, model-specific) | 0.0827 | 0.967 | 0.0033 | -2.09 | -2.12
in vitro model: cholesterol 0.05 mM, time point: constant (~7 days, model-specific) | 0.088 | 0.633 | -0.0371 | – | –
in vitro model: cholesterol 0.05 mM, time point: terminal (~4-5 doublings, model-specific) | 0.0858 | 0.865 | -0.1 | 0.166 | –
in vitro model: cholesterol-high 0.2 mM, time point: constant (~7 days, model-specific) | 0.0657 | 0.91 | -0.258 | 0.702 | –
in vitro model: cholesterol-high 0.2 mM, time point: terminal (~4-5 doublings, model-specific) | 0.0664 | 1 | -0.795 | 1.16 | 0.74
in vitro model: dormancy (butyrate + nitrate, low O2), time point: constant (~7 days, model-specific) | 0.0642 | 0.891 | 0.224 | -2.66 | -3.39
in vitro model: dormancy (butyrate + nitrate, low O2), time point: terminal (~4-5 doublings, model-specific) | 0.0565 | 0.979 | -0.0973 | -3.09 | -2.85
in vitro model: standard 7H9 glycerol, time point: constant = terminal | 0.0763 | 0.917 | 0.0491 | -5.81 | –
in vitro model: valerate, time point: constant (~7 days, model-specific) | 0.0587 | 0.86 | 0.0565 | -2.11 | –
in vitro model: valerate, time point: terminal (~4-5 doublings, model-specific) | 0.0331 | 0.928 | 0.0571 | -1.04 | -1.36

NNC(=O)c1ccncc1 [isoniazid] + O=[N+]([O-])c1cn2c(n1)OC[C@@H](OCc1ccc(OC(F)(F)F)cc1)C2 [pretomanid] + CO[C@H]1/C=C/O[C@@]2(C)Oc3c(C)c(O)c4c(O)c(c(/C=N/N5CCN(C6CCCC6)CC5)c(O)c4c3C2=O)NC(=O)/C(C)=C\C=C\[C@H](C)[C@H](O)[C@@H](C)[C@@H](O)[C@@H](C)[C@H](OC(C)=O)[C@@H]1C [rifapentine]
Settings | AUC25, [4] | Einf, [3] | GRinf, [5] | total FIC50, [1] | total FIC90, [2]
in vitro model: acidic pH 5.7, time point: constant (~7 days, model-specific) | 0.0727 | 0.917 | -0.193 | 4.53 | –
in vitro model: acidic pH 5.7, time point: terminal (~4-5 doublings, model-specific) | 0.0598 | 0.992 | -0.24 | 4.23 | 4.33
in vitro model: intracellular J774, time point: constant = terminal | – | 0.999 | -0.647 | – | 0.264

Settings | AUC25, [4] | Einf, [3] | GRinf, [5] | total FIC50, [1] | total FIC90, [2]
in vitro model: butyrate, time point: constant (~7 days, model-specific) | 0.0925 | 0.927 | -0.00998 | 2.86 | 1.02
in vitro model: butyrate, time point: terminal (~4-5 doublings, model-specific) | 0.0727 | 0.966 | 0.00856 | 2.77 | 2.95
in vitro model: cholesterol 0.05 mM, time point: constant (~7 days, model-specific) | 0.0995 | 0.687 | -0.151 | 1.97 | –
in vitro model: cholesterol 0.05 mM, time point: terminal (~4-5 doublings, model-specific) | 0.0863 | 0.914 | -0.223 | 2.05 | 0.57
in vitro model: cholesterol-high 0.2 mM, time point: constant (~7 days, model-specific) | 0.0548 | 0.808 | -0.0225 | 0.663 | –
in vitro model: cholesterol-high 0.2 mM, time point: terminal (~4-5 doublings, model-specific) | 0.0663 | 0.994 | -0.46 | 0.773 | 0.83
in vitro model: dormancy (butyrate + nitrate, low O2), time point: constant (~7 days, model-specific) | 0.0593 | 0.871 | 0.27 | 2.68 | 2.64
in vitro model: dormancy (butyrate + nitrate, low O2), time point: terminal (~4-5 doublings, model-specific) | 0.0428 | 0.978 | -0.11 | 2.7 | 2.66
in vitro model: standard 7H9 glycerol, time point: constant = terminal | 0.0426 | 0.884 | 0.179 | 4.92 | –
in vitro model: valerate, time point: constant (~7 days, model-specific) | 0.102 | 0.894 | -0.014 | 2.74 | –
in vitro model: valerate, time point: terminal (~4-5 doublings, model-specific) | 0.0549 | 0.938 | -0.167 | 3.29 | 2.95

NNC(=O)c1ccncc1 [isoniazid] + O=[N+]([O-])c1cn2c(n1)OC[C@@H](OCc1ccc(OC(F)(F)F)cc1)C2 [pretomanid] + CO[C@H]1/C=C/O[C@@]2(C)Oc3c(C)c(O)c4c(O)c(c(/C=N/N5CCN(C)CC5)c(O)c4c3C2=O)NC(=O)/C(C)=C\C=C\[C@H](C)[C@H](O)[C@@H](C)[C@@H](O)[C@@H](C)[C@H](OC(C)=O)[C@@H]1C [rifampicin]
Settings | AUC25, [4] | Einf, [3] | GRinf, [5] | total FIC50, [1] | total FIC90, [2]
in vitro model: acidic pH 5.7, time point: constant (~7 days, model-specific) | 0.0775 | 0.859 | -0.11 | 3.95 | –
in vitro model: acidic pH 5.7, time point: terminal (~4-5 doublings, model-specific) | 0.0694 | 0.984 | -0.197 | 3.6 | 3.63
in vitro model: intracellular J774, time point: constant = terminal | – | 0.984 | -0.312 | – | -0.077

Settings | AUC25, [4] | Einf, [3] | GRinf, [5] | total FIC50, [1] | total FIC90, [2]
in vitro model: butyrate, time point: constant (~7 days, model-specific) | 0.0916 | 0.923 | 0.00511 | 2.61 | 0.589
in vitro model: butyrate, time point: terminal (~4-5 doublings, model-specific) | 0.0722 | 0.963 | 0.0279 | 2.48 | 2.45
in vitro model: cholesterol 0.05 mM, time point: constant (~7 days, model-specific) | 0.0953 | 0.655 | -0.0786 | 1.31 | –
in vitro model: cholesterol 0.05 mM, time point: terminal (~4-5 doublings, model-specific) | 0.0868 | 0.899 | -0.194 | 1.53 | 0.957
in vitro model: cholesterol-high 0.2 mM, time point: constant (~7 days, model-specific) | 0.0449 | 0.872 | -0.204 | 0.405 | –
in vitro model: cholesterol-high 0.2 mM, time point: terminal (~4-5 doublings, model-specific) | 0.0391 | 0.977 | -0.604 | 0.794 | 0.324
in vitro model: dormancy (butyrate + nitrate, low O2), time point: constant (~7 days, model-specific) | 0.066 | 0.857 | 0.266 | 2.35 | 2.04
in vitro model: dormancy (butyrate + nitrate, low O2), time point: terminal (~4-5 doublings, model-specific) | 0.0408 | 0.974 | -0.0694 | 2.21 | 2.12
in vitro model: standard 7H9 glycerol, time point: constant = terminal | 0.0661 | 0.893 | 0.151 | 5.01 | 3.36
in vitro model: valerate, time point: constant (~7 days, model-specific) | 0.0615 | 0.863 | 0.000666 | 3.28 | –
in vitro model: valerate, time point: terminal (~4-5 doublings, model-specific) | 0.0349 | 0.939 | 0.0355 | 3.03 | 1.97
